{"source": "PubChem BioAssay AID1259411", "about": "(Chemical Carcinogenesis Research Information System (CCRIS), 2018)", "tested_on": "rodent carcinogenicity bioassays, tumor incidence", "experiment": "CCRIS carcinogenicity studies", "conditions": "Dose: 0, Dose: 0", "method_in_brief": "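Archive of carcinogenicity, mutagenicity, tumor promotion and tumor inhibition results drawn from journals, NCI reports and other sources, expert-reviewed; covers 1985-2011 and is no longer updated.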", "note": "The source made the active and inactive calls. The rule behind the calls is not given here."}
{"smiles": "CC1=C(C(=O)OCCN(Cc2ccccc2)c2ccccc2)C(c2cccc([N+](=O)[O-])c2)C(P2(=O)OCC(C)(C)CO2)=C(C)N1", "note": "(stereo unspecified)", "values": [{"measurement": "carcinogen call", "setting": "Species: MOUSE, Strain/Sex: B6C3F1/FEMALE, Route: ORAL, 500, 1600, 5000 PPM IN FEED FOR 104 WK (STUDY DURATION: 104 WK), 500, 1600, 5000 PPM IN FEED FOR 104 WK (STUDY DURATION: 104 WK)", "result": "inactive; negative"}, {"measurement": "carcinogen call", "setting": "Species: MOUSE, Strain/Sex: B6C3F1/MALE, Route: ORAL, 500, 1600, 5000 PPM IN FEED FOR 104 WK (STUDY DURATION: 104 WK), 500, 1600, 5000 PPM IN FEED FOR 104 WK (STUDY DURATION: 104 WK)", "result": "inactive; negative"}, {"measurement": "carcinogen call", "setting": "Species: RAT, Strain/Sex: F344/FEMALE, Route: ORAL, 400, 1200, 3600 PPM IN FEED FOR 104 WK (STUDY DURATION: 104 WK), 400, 1200, 3600 PPM IN FEED FOR 104 WK (STUDY DURATION: 104 WK)", "result": "inactive; negative"}, {"measurement": "carcinogen call", "setting": "Species: RAT, Strain/Sex: F344/MALE, Route: ORAL, 400, 1200, 3600 PPM IN FEED FOR 104 WK (STUDY DURATION: 104 WK), 400, 1200, 3600 PPM IN FEED FOR 104 WK (STUDY DURATION: 104 WK)", "result": "inactive; negative"}]}
{"smiles": "O=S(=O)(O)c1ccc(N=Nc2cc(S(=O)(=O)O)c3ccccc3c2O)c2ccccc12", "values": [{"measurement": "carcinogen call", "setting": "Species: MOUSE, Strain/Sex: B6C3F1/FEMALE, Route: ORAL, 3000, 6000 PPM IN DIET, 3000, 6000 PPM IN DIET", "result": "inactive; negative"}, {"measurement": "carcinogen call", "setting": "Species: MOUSE, Strain/Sex: B6C3F1/MALE, Route: ORAL, 3000, 6000 PPM IN DIET, 3000, 6000 PPM IN DIET", "result": "inactive; negative"}, {"measurement": "carcinogen call", "setting": "Species: RAT, Strain/Sex: F344/FEMALE, Route: ORAL, 12500, 25000 PPM IN DIET, 12500, 25000 PPM IN DIET", "result": "inactive; negative"}, {"measurement": "carcinogen call", "setting": "Species: RAT, Strain/Sex: F344/MALE, Route: ORAL, 6000, 12500 PPM IN DIET, 6000, 12500 PPM IN DIET", "result": "inactive; negative"}, {"measurement": "carcinogen call", "setting": "Species: RAT, Strain/Sex: WISTAR/FEMALE, Route: ORAL, 100, 400, 1200 MG/KG/D IN BASAL DIET TO PUPS OF PARENTS EXPOSED TO THE SAME DOSE LEVELS FOR 9 WK PRIOR TO MATING AND, 100, 400, 1200 MG/KG/D IN BASAL DIET TO PUPS OF PARENTS EXPOSED TO THE SAME DOSE LEVELS FOR 9 WK PRIOR TO MATING AND", "result": "inactive; negative"}, {"measurement": "carcinogen call", "setting": "Species: RAT, Strain/Sex: WISTAR/MALE, Route: ORAL, 100, 400, 1200 MG/KG/D IN BASAL DIET TO PUPS OF PARENTS EXPOSED TO THE SAME DOSE LEVELS FOR 9 WK PRIOR TO MATING AND, 100, 400, 1200 MG/KG/D IN BASAL DIET TO PUPS OF PARENTS EXPOSED TO THE SAME DOSE LEVELS FOR 9 WK PRIOR TO MATING AND", "result": "inactive; negative"}]}
{"smiles": "Nc1ccc(N)c([N+](=O)[O-])c1", "values": [{"measurement": "carcinogen call", "setting": "Species: MOUSE, Strain/Sex: B6C3F1/FEMALE, Route: ORAL, 2200, 4400 PPM IN DIET, 2200, 4400 PPM IN DIET, Tumor Site: Type of Lesion: LIVER: HEPATOCELLULAR ADENOMA OR CARCINOMA", "result": "active; positive"}, {"measurement": "carcinogen call", "setting": "Species: MOUSE, Strain/Sex: B6C3F1/MALE, Route: ORAL, 2200, 4400 PPM IN DIET, 2200, 4400 PPM IN DIET", "result": "inactive; negative"}, {"measurement": "carcinogen call", "setting": "Species: RAT, Strain/Sex: F344/FEMALE, Route: ORAL, 1100, 2200 PPM IN DIET, 1100, 2200 PPM IN DIET", "result": "inactive; negative"}, {"measurement": "carcinogen call", "setting": "Species: RAT, Strain/Sex: F344/MALE, Route: ORAL, 550, 1100 PPM IN DIET, 550, 1100 PPM IN DIET", "result": "inactive; negative"}]}
{"smiles": "COCCN(N=O)C(N)=O", "values": [{"measurement": "carcinogen call", "setting": "Species: RAT, Strain/Sex: F344/FEMALE, Route: INTRAVESICULAR, 3.2 MG 2/WK FOR 17 WK (STUDY DURATION: LIFETIME), Tumor Site: Type of Lesion: BLADDER: TUMOR", "result": "active; positive"}]}
{"smiles": "Nc1ccc(-c2ccccc2)cc1O", "values": [{"measurement": "carcinogen call", "setting": "Species: MOUSE, Strain/Sex: SWISS/FEMALE, Route: SUBCUTANEOUS, 200 UG IN 0.02 ML 3% AQUEOUS GELATIN 1/D FOR 3 D (STUDY DURATION: 52 WK)", "result": "inactive; negative"}, {"measurement": "carcinogen call", "setting": "Species: MOUSE, Strain/Sex: SWISS/MALE, Route: SUBCUTANEOUS, 200 UG IN 0.02 ML 3% AQUEOUS GELATIN 1/D FOR 3 D (STUDY DURATION: 52 WK), Tumor Site: Type of Lesion: LIVER: HEPATOMA", "result": "active; positive"}]}
{"smiles": "OCC(CO)NC1CC(O)(CO)C(O)C(O)C1O", "note": "(stereo unspecified)", "values": [{"measurement": "carcinogen call", "setting": "Species: MOUSE, Strain/Sex: CD-1/FEMALE, Route: GAVAGE, 15, 50, 150 MG/KG/D IN DISTILLED WATER (STUDY DURATION: 105 WK), 15, 50, 150 MG/KG/D IN DISTILLED WATER (STUDY DURATION: 105 WK)", "result": "inactive; negative"}, {"measurement": "carcinogen call", "setting": "Species: MOUSE, Strain/Sex: CD-1/MALE, Route: GAVAGE, 15, 50, 150 MG/KG/D IN DISTILLED WATER (STUDY DURATION: 105 WK), 15, 50, 150 MG/KG/D IN DISTILLED WATER (STUDY DURATION: 105 WK)", "result": "inactive; negative"}, {"measurement": "carcinogen call", "setting": "Species: RAT, Strain/Sex: F344/FEMALE, Route: GAVAGE, 3, 10, 30 MG/KG/D IN DISTILLED WATER FOR 24 MO (STUDY DURATION: 110 WK), 3, 10, 30 MG/KG/D IN DISTILLED WATER FOR 24 MO (STUDY DURATION: 110 WK)", "result": "inactive; negative"}, {"measurement": "carcinogen call", "setting": "Species: RAT, Strain/Sex: F344/MALE, Route: GAVAGE, 3, 10, 30 MG/KG/D IN DISTILLED WATER FOR 24 MO (STUDY DURATION: 110 WK), 3, 10, 30 MG/KG/D IN DISTILLED WATER FOR 24 MO (STUDY DURATION: 110 WK)", "result": "inactive; negative"}]}
{"smiles": "O=[N+]([O-])c1cc2c3c(ccc2c2ccccc12)[C@H](O)[C@@H](O)C=C3", "values": [{"measurement": "carcinogen call", "setting": "Species: MOUSE, Strain/Sex: SWISS/FEMALE, Route: INTRAPERITONEAL, 100 NMOL (TOTAL DOSE) 1/7, 2/7 AND 4/7 ADMINISTERED ON DAYS 1, 8 AND 15 OF LIFE RESPECTIVELY (STUDY DURATION: 32 WK), Tumor Site: Type of Lesion: LUNG: TUMOR", "result": "active; positive"}, {"measurement": "carcinogen call", "setting": "Species: MOUSE, Strain/Sex: SWISS/MALE, Route: INTRAPERITONEAL, 100 NMOL (TOTAL DOSE) 1/7, 2/7 AND 4/7 ADMINISTERED ON DAYS 1, 8 AND 15 OF LIFE RESPECTIVELY (STUDY DURATION: 32 WK), Tumor Site: Type of Lesion: LUNG: TUMOR, LIVER: TUMOR", "result": "active; positive"}]}
{"smiles": "CCCCC(CC)COC(=O)c1ccc(C(=O)OCC(CC)CCCC)cc1", "note": "(stereo unspecified)", "values": [{"measurement": "carcinogen call", "setting": "Species: Rat, Strain/Sex: Fischer 344/Female, Route: Oral, 1500, 6000, 12,000 ppm in diet for 104 wk (average daily dose 0, 102, 418, 901 mg/kg/day), 1500, 6000, 12,000 ppm in diet for 104 wk (average daily dose 0, 102, 418, 901 mg/kg/day)", "result": "inactive; negative"}, {"measurement": "carcinogen call", "setting": "Species: Rat, Strain/Sex: Fischer 344/Male, Route: Oral, 1500, 6000, 12,000 ppm in diet for 104 wk (average daily dose 0, 79, 324, 666 mg/kg/day), 1500, 6000, 12,000 ppm in diet for 104 wk (average daily dose 0, 79, 324, 666 mg/kg/day)", "result": "inactive; negative"}]}
{"smiles": "N#[N+]c1ccccc1", "values": [{"measurement": "carcinogen call", "setting": "Species: MOUSE, Strain/Sex: SWISS/FEMALE, Route: GAVAGE, 100 MG/KG BW 1X/WK FOR 52 WK (STUDY DURATION: 140 WK), Tumor Site: Type of Lesion: LUNG: TUMOR", "result": "active; positive"}, {"measurement": "carcinogen call", "setting": "Species: MOUSE, Strain/Sex: SWISS/FEMALE, Route: SUBCUTANEOUS, 10 UG/G BW IN 0.01 ML OF 0.9% SALINE 1/WK FOR 26 WK (STUDY DURATION: 140WK), Tumor Site: Type of Lesion: SUBCUTANEOUS TISSUE: TUMOR", "result": "active; positive"}, {"measurement": "carcinogen call", "setting": "Species: MOUSE, Strain/Sex: SWISS/FEMALE, Route: SUBCUTANEOUS, 25 MG/KG BW 1X/WK FOR 10 WK (STUDY DURATION: 130 WK)", "result": "inactive; negative"}, {"measurement": "carcinogen call", "setting": "Species: MOUSE, Strain/Sex: SWISS/MALE, Route: GAVAGE, 100 MG/KG BW 1X/WK FOR 52 WK (STUDY DURATION: 130 WK), Tumor Site: Type of Lesion: LUNG: TUMOR", "result": "active; positive"}, {"measurement": "carcinogen call", "setting": "Species: MOUSE, Strain/Sex: SWISS/MALE, Route: SUBCUTANEOUS, 10 UG/G BW IN 0.01 ML OF 0.9% SALINE 1/WK FOR 26 WK (STUDY DURATION: 140 WK), Tumor Site: Type of Lesion: SUBCUTANEOUS TISSUE: TUMOR", "result": "active; positive"}, {"measurement": "carcinogen call", "setting": "Species: MOUSE, Strain/Sex: SWISS/MALE, Route: SUBCUTANEOUS, 25 MG/KG BW 1X/WK FOR 10 WK (STUDY DURATION: 120 WK)", "result": "inactive; negative"}]}
